According to the NIST ThermoML archive (doi:10.1021/je050296u):
Numbers after ± are expanded uncertainties.

Assay: mn = molality of the nth substance listed, in mol/kg
Settings: 298.15 K; 101.33 kPa; Liquid; Calvet calorimetry; m1 = 0.1

| SMILES | apparent molar enthalpy |
| --- | --- |
| NCC(=O)O [2-aminoacetic acid] + O | 14.2 ± 0.24 kJ/mol |
| C[C@H](N)C(=O)O [(S)-2-aminopropanoic acid] + O | 7.57 ± 0.15 kJ/mol |
| N[C@@H](CO)C(=O)O [L-serine] + O | 11.3 ± 0.2 kJ/mol |
